# Several values for one entry are separate records, joined by “and”; a condition that tells them apart may be missing. Equal entries are not always repeated.
# Assays:
# [1] = Colour strength on storage of pigment powder, tested in alkyd paint system; format: physicochemical
# Protocol: The dried pigments are incorporated in a conventional manner into an alkyd paint system (SORBAL®P470, an alkyd resin ex DSM resins Ltd. having a solids content of 70%, white spirit, pigment and driers solution).
# The dried powders are each divided into two portions. One portion is tested in the paint system immediately after drying. […] The tinting strengths are assessed visually and instrumentally.
# The values correspond to the instrumentally-measured colour strength for the same pigment content in the paint.
# [2] = tested on: mixed culture of Gram-positive cocci, Gram-negative cocci, Gram-positive rods and Gram-negative rods; test: Microbial contamination of dried Pigment Yellow 74 powder (Example 1 procedure) after mixing filter cake with bacterial culture; format: cell-based, bacteria
# Protocol: (§1) Susceptibility to microbial contamination is assessed according to the following procedure:
# (§2) Microbial contamination is assessed using individual bacteria of the morphological types, Gram-positive cocci, Gram-negative cocci, Gram-positive rods and Gram-negative rods which are maintained on Nutrient Agar slopes. When required, each is cultured in Nutrient broth at 30° C. until an organism count of >10^8 colony-forming units (cfu) per milliliter (ml) is reached. The individual cultures are then mixed in equal proportions to provide a mixed culture which is then used immediately.
# (§3) 23.3 parts of acetic acid (80%) are added to a solution of 55 parts of acetoacet-o-anisidide dissolved in a solution of 25.5 parts of sodium hydroxide (47%) in 450 parts of water at a temperature of 0° C. The resultant slurry is reacted with 42.5 parts of p-nitro-o-anisidine previously diazotised with 45.4 parts of sodium nitrite (37%) and 56 parts of hydrochloric acid (36%) in the usual manner with simultaneous addition of sodium hydroxide solution (10%) to maintain pH 5.5-6.0. To the coupled slurry are then added 3 parts of dibutyl sebacate and 1 part of dimethylbenzyl-C12-14alkylammonium chloride (100% active) and the mixture is heated to a temperature of 100° C. and maintained at this temperature for one hour. The product is then filtered and washed with water under vacuum to remove soluble salts. The filter cake(still under vacuum suction) is mixed with a bacterial culture (10 ml of culture diluted to 100 ml with water)and vacuum suction is maintained until no further liquid emanates from the filter cake. The filter cake, without further washing, is then dried and converted to a powder by grinding. The powder is then passed through a 150 micron sieve.
# The procedure described in Example 1 is repeated, but varying the type of biocide and amount of biocide used. The procedure for determining the extent of microbial contamination is as follows:
# (§4) 10 mg of the sieved powder and one drop of sterile water are evenly spread on a Nutrient Agar plate with a glass spreader under aseptic conditions and the plate incubated at 30° C. for 48 hours, The number of bacterial colonies evident on each plate are then counted and expressed as the number of colony-forming units per gram (cfu/g).
# [3] = tested on: mixed culture of Gram-positive cocci, Gram-negative cocci, Gram-positive rods and Gram-negative rods; test: Microbial contamination of dried Pigment Yellow 65 powder (Example 2 procedure) after mixing filter cake with bacterial culture; format: cell-based, bacteria
# Protocol: as §1, §2, §4
# as §3, with “(100%)” for “(80%)”, “o-nitro-p-anisidine” for “p-nitro-o-anisidine”, “cake (still” for “cake(still”, “water) and” for “water)and”
# The procedure described in Example 2 is repeated, but varying the type of biocide and amount of biocide used.
# The procedure described in Example 2 is repeated, but varying the type of biocide and amount of biocide used and omitting the DBS.
# [4] = tested on: mixed culture of Gram-positive cocci, Gram-negative cocci, Gram-positive rods and Gram-negative rods; test: Microbial contamination of dried Pigment Yellow 13 powder (Example 5 procedure) after mixing filter cake with bacterial culture; format: cell-based, bacteria; settings: PY13, no DBS
# Protocol: as §1, §2, §4
# A solution of 8.9 parts of acetic acid (100%) and 15 parts hydrochloric acid (36%) in 100 parts water are added to a solution of 63 parts of acetoacet-m-xylidide dissolved in a solution of 25.2 parts of sodium hydroxide (50%) in 676 parts of water at a temperature of 20° C. The resultant slurry is reacted with 36.9 parts of a previously tetrazotised solution of 3,3′-dichlorobenzidine, with simultaneous addition of sodium hydroxide solution (10%) to maintain pH 4.5-5.5. […] The product is then filtered and washed with water under vacuum to remove soluble salts. The filter cake (still under vacuum suction) is mixed with a bacterial culture (10 ml of culture diluted to 100 ml with water) and vacuum suction is maintained until no further liquid emanates from the filter cake. The filter cake, without further washing, is then dried and converted to a powder by grinding. The powder is then passed through a 150 micron sieve.
# [5] = tested on: mixed culture of Gram-positive cocci, Gram-negative cocci, Gram-positive rods and Gram-negative rods; test: Microbial contamination of dried Pigment Yellow 74 powder (Example 1 procedure) after mixing filter cake with bacterial culture; format: cell-based, bacteria; remark: listed apart in the source
# [6] = PY74, 3 parts dibutyl sebacate, 0.5 parts biocide, plate 30° C. 48 hours
# [7] = PY74, 3 parts dibutyl sebacate, 1.0 parts biocide, plate 30° C. 48 hours
# [8] = PY74, 3 parts dibutyl sebacate, 3.0 parts biocide, plate 30° C. 48 hours
# [9] = PY74, 3 parts dibutyl sebacate, 5.0 parts biocide, plate 30° C. 48 hours
# [10] = PY65, omitting the DBS, 0.5 parts biocide
# [11] = PY65, omitting the DBS, 1.0 parts biocide
# [12] = PY65, omitting the DBS, 3.0 parts biocide
# [13] = PY65, omitting the DBS, 5.0 parts biocide
# [14] = PY65, with 3 parts dibutyl sebacate, 0.5 parts biocide
# [15] = PY65, with 3 parts dibutyl sebacate, 1.0 parts biocide
# [16] = PY65, with 3 parts dibutyl sebacate, 3.0 parts biocide
# [17] = PY65, with 3 parts dibutyl sebacate, 5.0 parts biocide
Compound,"microbial contamination, colony-forming units per gram [2, 6]","microbial contamination, colony-forming units per gram [2, 7]","microbial contamination, colony-forming units per gram [2, 8]","microbial contamination, colony-forming units per gram [2, 9]","microbial contamination, colony-forming units per gram [3, 10]","microbial contamination, colony-forming units per gram [3, 11]","microbial contamination, colony-forming units per gram [3, 12]","microbial contamination, colony-forming units per gram [3, 13]","microbial contamination, colony-forming units per gram [3, 14]","microbial contamination, colony-forming units per gram [3, 15]","microbial contamination, colony-forming units per gram [3, 16]","microbial contamination, colony-forming units per gram [3, 17] [cfu/g]","microbial contamination, colony-forming units per gram ([4]; 0.5 parts biocide)","microbial contamination, colony-forming units per gram ([4]; 1.0 parts biocide)","microbial contamination, colony-forming units per gram ([4]; 3.0 parts biocide) [cfu/g]","microbial contamination, colony-forming units per gram ([4]; 5.0 parts biocide) [cfu/g]",other results
COc1cc([N+](=O)[O-])ccc1/N=N/C(C(C)=O)C(=O)Nc1ccccc1OC (centres unmarked) [C.I. Pigment Yellow 74],–,–,–,–,–,–,–,–,–,–,–,–,–,–,–,–,"loss of strength ([1]; initial versus last storage time at ambient temperature): 36 and 26 and 42; amount of Pigment required, 3 weeks ([1]; powder stored at ambient temperature 3 weeks): 105 and 104; amount of Pigment required, 6 weeks ([1]; powder stored at ambient temperature 6 weeks): 105 and 108; colour strength, initial ([1]; powder tested immediately after drying, instrumentally-measured colour strength): 141 and 134 and 146"
"CCCCCCCCn1sccc1=O [OTW, n-Octylisothiazolin-3-one]",>10^4 cfu/g,2.0 × 10^4 cfu/g,>10^4 cfu/g,1.4 × 10^3 cfu/g,>10^4 cfu/g,>10^4 cfu/g,>10^3 cfu/g,>10^3 cfu/g,>10^4 cfu/g,>10^4 cfu/g,>10^4 cfu/g,0,>10^4 cfu/g,5.0 × 10^3 cfu/g,0,0,–
Benzyldimethyl-C12-14-alkylammonium chloride [KLC],0 cfu/g,0 cfu/g,0 cfu/g,0 cfu/g,1.3 × 10^4 cfu/g,0 cfu/g,0 cfu/g,0 cfu/g,2.7 × 10^3 cfu/g,0 cfu/g,0 cfu/g,0,>10^4 cfu/g,>10^4 cfu/g,0,0,"microbial contamination, colony-forming units per gram ([2]; PY74, 3 parts DBS + 1 part KLC): 0 cfu/g; microbial contamination, colony-forming units per gram ([2]; PY74, 3 parts dibutyl sebacate, 0.1 parts biocide, plate 30° C. 48 hours): >10^4 cfu/g; microbial contamination, colony-forming units per gram ([5]; PY74, 0 parts DBS + 1 part KLC): 0 cfu/g; microbial contamination, colony-forming units per gram ([5]; PY74, 1 parts DBS + 1 part KLC): 0 cfu/g; microbial contamination, colony-forming units per gram ([5]; PY74, 2 parts DBS + 1 part KLC): 0 cfu/g"

# Reference: patent publication US6361595B1, “Process for the preparation of pigment compositions” (Ciba Specialty Chemicals Corporation, priority 1999, dated 2002)
